The source of these data is patent publication US8071810B2, “C5a receptor antagonists” (Jerini AG, priority 2005, dated 2011).

≈ marks a conversion by molar mass, not a printed value.

The target in series [1] is T1, C5a receptor (Homo sapiens, UniProt P21730).
T1 sequence (P21730 1-350): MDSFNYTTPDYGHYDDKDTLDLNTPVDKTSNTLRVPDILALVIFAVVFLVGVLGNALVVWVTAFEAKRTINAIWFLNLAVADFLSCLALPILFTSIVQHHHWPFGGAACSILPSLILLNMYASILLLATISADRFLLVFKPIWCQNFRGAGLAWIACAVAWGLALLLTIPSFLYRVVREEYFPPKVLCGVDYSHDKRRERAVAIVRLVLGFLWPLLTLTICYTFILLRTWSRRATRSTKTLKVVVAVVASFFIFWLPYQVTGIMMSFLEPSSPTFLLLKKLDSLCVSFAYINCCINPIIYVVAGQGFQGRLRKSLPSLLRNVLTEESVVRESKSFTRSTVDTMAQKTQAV
Particulars: cited from earlier work.

Series [2] concerns the target T1, C5a receptor. Particulars: cited from earlier work. The source holds these as a separate data set.
The target of series [3] is T1, C5a receptor. The note with it: cited from earlier work. This is another data set of the same source.
Series [4] in a line: Stability (shelf life) as solid TFA salt, RP-HPLC (Example 25). The format is physicochemical. The note with it: light, room temperature, up to 7 days. The procedure: The fractions containing the desired compound are lyophilized. In this way 1-40 mg of the compounds 11 and 13 are isolated as solid. Due to the basic amino groups the compounds are obtained as TFA salts. 0.5-10 mg of the solid are stored under the influence of light at room temperature to determine their stability over time.
The conditions were as follows:
FIG. 1 A): after purification via HPLC (solution in MeCN/H2O/TFA),
FIG. 1 B) after lyophilization (0 days of storage as solid)
FIG. 1 C) after 7 days of storage as solid

The target of series [5] is T2, human C5a receptor (CD88) (Homo sapiens, UniProt P21730).
T2 construct: expressed in transfected cells; host or cells: rat basophilic leukemia (RBL) cells, stably transfected
T2 sequence (P21730 1-350): T1 sequence (P21730 1-350)
Nature of the series: C5a induced enzyme (glucosaminidase) release assay in RBL cells expressing the human C5a receptor (Example 28). The format is cell-based. The note with it: inhibition of C5a induced enzyme release, RBL cells with human C5aR; read-out: Activity-range (antagonistic activity, IC50 enzyme release). The method in brief: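 Rat basophilic leukemia (RBL) cells expressing human C5a receptor, at 2×10^6 cells/ml, primed with cytochalasin B, then incubated with test compound 10 min at 37 °C.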

The next series concerns C5a induced neutropenia. Put plainly: C5a induced neutropenia in gerbils (Example 35). The note with it: gerbil. The class given is in vivo, gerbils (Meriones unguiculatus). The source says:
C5a induced neutropenia is a model for shock induced diseases (e.g. septic shock), where amongst others the systemic role of C5a (blood pressure decrease, neutropenia) plays an important role. The reason for the decrease of the neutrophils in the circulation is their binding to the vessel walls due to the C5a stimulus. These processes of neutrophil recruitment are playing an important role in many other diseases like reperfusion injury. […]
Male gerbils (Meriones unguiculatus) are anaesthesized i.p. with ketamine (80 mg/kg) and xylazine (12 mg/kg). The animals are intubated and a catheter is inserted in the jugular vene and the animals are subjected to the following procedure:
1. The gerbils are pre-treated with vehicle or the compounds of the present invention 80 (3 mg/kg) or 131 (1 mg/kg) via i.v. infusion.
One minute before compound treatment a blood sample is taken.
2. 10 minutes after the infusion of the compounds the gerbils are treated i.v. with 100 μg/kg hrC5a. […]
White blood cell counts are measured with a haematology-cell-counter. […]
The differential cell count is determined as the sum of neutrophils, eosinophile, easophile, lymphocytes and monocytes from 100 cells. Then, the percentage of neutrophils in relation to all white blood cells is determined. […]

Series [6] can be described thus: Solubility in aqueous HEPES buffer by HPLC (Example 33). The format is physicochemical. Particulars: kinetic from dmso stock. The procedure: To determine the solubility the compound to be measured is dissolved (e.g, […] of a 5 mM solution in DMSO) in organic solvent (e.g. 198 μl DMSO) as well as in aqueous buffer solution (e.g. 198 μl HEPES buffer). Both solutions are analyzed via analytical HPLC and the areas under the peaks are compared. The value for the organic solution is taken as 100%.

Turning to `NC(N)=Nc1ccc(OCCc2ccccc2)c(-c2ccccc2)c1` [Compound 5], the activity at C5a receptor [1] was 0.8 µM. For `CC(C)Cc1ccc([C@@H](C)C(=O)NCCC[N+]2(C)CCCCC2)cc1.[I-]` [Compound 6], the “activity in a chemotaxis assay” value at C5a receptor [2] is 24 µM. For the compound `CC(C)c1ccc(N(Cc2ccc(N(C)C)cc2)C(=O)Nc2c(C(C)C)cccc2C(C)C)cc1` [Compound 11, 3-(2,6-diisopropyl-phenyl)-1-(4-dimethylamino-benzyl)-1-(4-isopropyl-phenyl)-urea, reference compound], the “binding affinity to the C5a receptor” value at C5a receptor [3] is reported as 100 nM. Moreover, the “Stability on storage as solid” value in series [4] is “not stable”. Besides, the IC50 (commonly the midpoint of a concentration-inhibition curve) in series [5] is 200 to 5000 nM. As to `CCc1ccc(N(C(=O)Nc2c(CC)c(N)cc(Cl)c2CC)[C@@H](C)c2ccc(Cl)cc2)cc1` [compound 80, (S)-3-(3-amino-5-chloro-2,6-diethyl-phenyl)-1-[1-(4-chlor-phenyl)-ethyl]-1-(4-ethyl-phenyl)-urea], the “Effect on C5a induced neutropenia” value with C5a induced neutropenia (3 mg/kg i.v. infusion 10 min before 100 μg/kg hrC5a) is recorded as “significantly reduces C5a induced neutropenia”. Besides, the IC50 in series [5] was below 60 nM. Also, in series [6], the solubility (commonly the dissolved amount per volume that the medium holds) was 4 µM (≈ 1.94 µg/mL).

In the case of `CCc1c(N)cc(Cl)c(CC)c1NC(=O)N(c1ccc(NC)cc1)[C@@H](C)c1ccc(Cl)cc1` [compound 131, (S)-3-(3-amino-5-chloro-2,6-diethyl-phenyl)-1-[1-(4-chloro-phenyl)-ethyl]-1-(4-methylamino-phenyl)-urea], the “Effect on C5a induced neutropenia” value in the series with C5a induced neutropenia (1 mg/kg i.v. infusion 10 min before 100 μg/kg hrC5a) was “significantly reduces C5a induced neutropenia”.
